Test results from publication PMC8082182 (Frontiers in Pharmacology, 2021).
Where two headings read alike, the source gives them in different places.

How the values were obtained:
[1] = for AUC0–24, median (IQR) / Cmax,ss, Median (IQR): Improved patients
Description: (§1) The TDM concentration data of therapeutic drugs in adults and pediatric patients with Gram-positive bacterial infection were collected.
(§2) The population pharmacokinetics model was composed of a structural model and random effect models using the first-order conditional estimation method (FOCE) with interaction. Demographic variables (e.g., gender, age, weight, height, body mass index [BMI]), renal function descriptors (serum creatinine, eGFR, creatinine clearance rate [CLCr], and albumin, etc.), and disease conditions (e.g., surgery or injury, chronic kidney disease, diabetes, cancer) were tested as potential covariates. Covariates were evaluated using the stepwise forward-selection method and backward elimination. The population PK model for adults and pediatric patients were evaluated respectively and the model parameters were compared. In order to unify the population PK model for adults and pediatric patients, the datasets were merged and the covariates were consolidated and reevaluated. […] The established population PK model was used to simulate individual PK parameters (Cmin, Cmax, AUC0–24) by Bayesian feedback method for the further PK/PD evaluation.

[2] = Unified one-compartment population PK model (NONMEM, FOCE with interaction) for Chinese adults and pediatric patients
Description: as §1, §2

[3] = Pulmonary, Not improved patients, IQR not reported for n < 5

In the case of `CN[C@H](CC(C)C)C(=O)N[C@H]1C(=O)N[C@@H](CC(N)=O)C(=O)N[C@H]2C(=O)N[C@H]3C(=O)N[C@H](C(=O)N[C@H](C(=O)O)c4cc(O)cc(O)c4-c4cc3ccc4O)[C@H](O)c3ccc(c(Cl)c3)Oc3cc2cc(c3O[C@@H]2O[C@H](CO)[C@@H](O)[C@H](O)[C@H]2O[C@H]2C[C@](C)(N)[C@H](O)[C@H](C)O2)Oc2ccc(cc2Cl)[C@H]1O` [vancomycin], the “AUC0–24, median (IQR)” value ([1]; Bloodstream) is reported as 215.9 (172.33, 305.85) hr*mg/L, the “Cmax,ss, Median (IQR)” value ([1]; Bloodstream) is reported as 23.32 (17.20, 26.57) mg/L and the “Cmax,ss, Median” value ([1]; Bloodstream, Not improved patients, IQR not reported for n < 5) is reported as 26.02 mg/L. The “AUC0–24, median (IQR)” value ([1]; Central nerve system) was 303.3 (204.97, 386.18) hr*mg/L, the “Cmax,ss, Median (IQR)” value ([1]; Central nerve system) was 28.11 (24.75, 30.66) mg/L and the “Cmax,ss, Median” value ([1]; Central nerve system, Not improved patients, IQR not reported for n < 5) was 21.41 mg/L. The “Cmax,ss, Median (IQR)” value ([1]; Endocarditis) was 21.50 (17.20, 23.70) mg/L, the “AUC0–24, median (IQR)” value ([1]; Overall) was 217.5 (172.87, 286.34) hr*mg/L and the “AUC0–24, median (IQR)” value ([1]; Pulmonary) was 219.2 (183.44, 266.38) hr*mg/L. For the same compound, the “Cmax,ss, Median (IQR)” value ([1]; Pulmonary) was 20.24 (16.24, 28.07) mg/L, the “Cmax,ss, Median” value [1, 3] was 22.60 mg/L and the “Cmin,ss, Median” value [1, 3] was 3.32 mg/L. The “AUC0–24, median (IQR)” value ([1]; Urinary tract) was 196.2 (145.03, 287.92) hr*mg/L, the “Cmax,ss, Median (IQR)” value ([1]; Urinary tract) was 22.08 (15.80, 25.63) mg/L and the “Cmax,ss, Median” value ([1]; Urinary tract, Not improved patients, IQR not reported for n < 5) was 29.18 mg/L. The “Age effect on V (θ5)” value ([2]; bootstrap median) was 0.331, the “Body weight effect on V (θ6)” value ([2]; bootstrap median) was 0.347 and the “V (θ2)” value ([2]; bootstrap median) was 44.8 L. For the same compound, the “CL (θ1)” value ([2]; bootstrap median, 1,000 times) was 3.82 L/h, the “Age effect on V (θ5)” value ([2]; final model estimate, exponent) was 0.33 and the “Body weight effect on V (θ6)” value ([2]; final model estimate, exponent) was 0.349. The “V (θ2)” value ([2]; final model estimate, typical value at AGE 55, WT 58.25) was 44.7 L and the “CL (θ1)” value ([2]; final model estimate, typical value at CLCr 90.28, WT 58.25, adults and pediatric patients) was 3.83 L/h.
